Assay [1] can be described thus: Inhibition of Rhizoctonia solani alpha-glucosidase. The conditions noted are these: read-out: I50.
The next assay addresses T1, Trehalase (Rattus norvegicus, UniProt O70282).
T1 sequence (O70282 whole entry): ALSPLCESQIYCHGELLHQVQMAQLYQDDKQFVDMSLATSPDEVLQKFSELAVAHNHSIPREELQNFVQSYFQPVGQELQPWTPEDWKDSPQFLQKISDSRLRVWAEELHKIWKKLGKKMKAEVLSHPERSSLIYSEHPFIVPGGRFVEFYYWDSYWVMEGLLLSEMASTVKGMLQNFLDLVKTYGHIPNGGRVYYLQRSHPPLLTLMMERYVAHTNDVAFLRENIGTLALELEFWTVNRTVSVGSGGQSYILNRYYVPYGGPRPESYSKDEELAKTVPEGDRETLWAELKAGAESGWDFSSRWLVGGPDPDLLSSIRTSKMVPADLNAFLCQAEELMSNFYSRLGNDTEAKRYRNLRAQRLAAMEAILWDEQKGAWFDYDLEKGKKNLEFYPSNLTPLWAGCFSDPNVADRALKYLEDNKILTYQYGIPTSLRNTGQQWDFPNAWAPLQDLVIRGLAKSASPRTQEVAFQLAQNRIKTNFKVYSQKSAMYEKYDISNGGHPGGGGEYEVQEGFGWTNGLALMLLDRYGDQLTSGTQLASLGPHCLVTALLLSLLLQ
Description: Inhibition of Rattus norvegicus (rat) trehalase. The note with it: read-out: I50.

Assay [2] relates to Spodoptera litura. Kind of assay: Insecticidal activity against last-instar Spodoptera litura larvae assessed as larval pupal intermediate injected at 50 ug/larvae (reference value: […]). It counts as functional.
The test system of assay [3] is Spodoptera litura. Kind of assay: Insecticidal activity against last-instar Spodoptera litura larvae assessed as partial pupation at 50 ug/larvae topical application (reference value: […]). It counts as functional.
The subject of assay [4] is Spodoptera litura. Kind of assay: Insecticidal activity against last-instar Spodoptera litura larvae assessed as partial pupation injected at 0.4 ug/larvae (reference value: […]). Type of assay: functional.
Assay [5] relates to Spodoptera litura. Kind of assay: Insecticidal activity against last-instar Spodoptera litura larvae assessed as wing pad separation injected at 50 ug/larvae (reference value: 100%). It counts as functional.
For assay [6], the system named is Mamestra brassicae. Description: Insecticidal activity against last-instar Mamestra brassicae larvae assessed as partial pupation injected at 50 ug/larvae (reference value: 10%). Type of assay: functional.
The test system of assay [7] is Mamestra brassicae. Description: Insecticidal activity against last-instar Mamestra brassicae larvae assessed as wing pad separation at 50 ug/larvae oral administration (reference value: 0%). It counts as functional.
For assay [8], the system named is Mamestra brassicae. Kind of assay: Insecticidal activity against last-instar Mamestra brassicae larvae assessed as wing pad separation injected at 5 ug/larvae (reference value: 0%). Type of assay: functional.
The subject of assay [9] is Mamestra brassicae. Description: Insecticidal activity against last-instar Mamestra brassicae larvae assessed as normal pupae at 50 ug/larvae topical application (reference value: 90%). Type of assay: functional.
The test system of assay [10] is Mamestra brassicae. Description: Insecticidal activity against last-instar Mamestra brassicae larvae assessed as normal pupae injected at 50 ug/larvae (reference value: 90%). Type of assay: functional.
Assay [11] deals with Mamestra brassicae. Description: Insecticidal activity against last-instar Mamestra brassicae larvae assessed as normal pupae injected at 5 ug/larvae (reference value: 90%). It counts as functional.
The test system of assay [12] is Mamestra brassicae. Description: Insecticidal activity against last-instar Mamestra brassicae larvae assessed as normal pupae injected at 1 ug/larvae (reference value: 90%). Type of assay: functional.
Assay [13] has as its system Mamestra brassicae. Description: Insecticidal activity against last-instar Mamestra brassicae larvae assessed as larval-pupal intermediate at 50 ug/larvae topical application (reference value: 0%). It counts as functional.
Assay [14] deals with Mamestra brassicae. Description: Insecticidal activity against last-instar Mamestra brassicae larvae assessed as larval-pupal intermediate injected at 50 ug/larvae (reference value: 0%). It counts as functional.
Assay [15] deals with Mamestra brassicae. Kind of assay: Insecticidal activity against last-instar Mamestra brassicae larvae assessed as larval-pupal intermediate injected at 5 ug/larvae (reference value: 0%). It counts as functional.
In assay [16] the test system is Mamestra brassicae. Kind of assay: Insecticidal activity against last-instar Mamestra brassicae larvae assessed as partial pupation at 50 ug/larvae topical application (reference value: 10%). Type of assay: functional.

Consider one compound from ChEMBL document CHEMBL3044761, “Lethal Activity of a Trehalase Inhibitor, Validoxylamine A, against Mamestra brassicae and Spodoptera litura” (J Pestic Sci, 1994).

Take `OCC1=C[C@H](N[C@H]2C[C@H](CO)[C@@H](O)[C@H](O)[C@H]2O)[C@H](O)[C@@H](O)[C@@H]1O` [VALIDOXYLAMINE A]: the figures for the IC50 (in [1]; on Trehalase) were above 1000 µM and 0.0049 µM, respectively. Further, the Activity in the assay on Spodoptera litura [2] is recorded as 58%; in the assay on Spodoptera litura [3], 5%; with Spodoptera litura [4], 10%; in the assay on Spodoptera litura [5], 13%; with Mamestra brassicae [6] it was 0%; in the assay on Mamestra brassicae [7] it was 10%. For the same compound, the Activity is 7% in the assay with Mamestra brassicae [8]; 60% in the assay with Mamestra brassicae [9]; 0% with Mamestra brassicae [10]; 7% with Mamestra brassicae [11]; 27% in the assay with Mamestra brassicae [12]; 0% in the assay on Mamestra brassicae [13]. Further, the Activity amounted to 100% with Mamestra brassicae [14], 60% in the assay with Mamestra brassicae [15] and 40% with Mamestra brassicae [16].
